# According to ChEMBL document CHEMBL1201862, “PubChem BioAssay data set” (2004):
# Active and inactive are the calls of the source.
# Experiments:
# Beta-lactamase [1] = target: Beta-lactamase (Salmonella choleraesuis (strain SC-B67), UniProt Q5J463); assay: Epi-absorbance-based counterscreen for selective VIM-2 inhibitors: dose response biochemical high throughput screening assay to identify inhibitors of TEM-1 serine-beta-lactamase.
# Beta-lactamase [2] = target: T1, Beta-lactamase (Pseudomonas aeruginosa, UniProt Q79MP6); assay: IMP-1 metallo-beta-lactamase inhibitors, dose response, selectivity assay for VIM-2 inhibitor project, biochemical, epi-absorbance (AID 1920)
# T1 sequence (Q79MP6 whole entry): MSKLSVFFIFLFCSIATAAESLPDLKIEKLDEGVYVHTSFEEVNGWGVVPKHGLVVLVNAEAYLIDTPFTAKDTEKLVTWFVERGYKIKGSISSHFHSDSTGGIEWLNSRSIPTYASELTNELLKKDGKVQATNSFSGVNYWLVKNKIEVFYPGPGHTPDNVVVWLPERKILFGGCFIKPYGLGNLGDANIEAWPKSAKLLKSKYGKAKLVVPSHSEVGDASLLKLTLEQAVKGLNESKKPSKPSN
# Beta Lactamase [3] = target: T2, Beta Lactamase (Pseudomonas aeruginosa, UniProt Q932Y6); assay: VIM-2 metallo-beta-lactamase inhibitor potency, dose response, biochemical, epi-absorbance readout, selective inhibitors (AID 1919)
# T2 sequence (Q932Y6 whole entry): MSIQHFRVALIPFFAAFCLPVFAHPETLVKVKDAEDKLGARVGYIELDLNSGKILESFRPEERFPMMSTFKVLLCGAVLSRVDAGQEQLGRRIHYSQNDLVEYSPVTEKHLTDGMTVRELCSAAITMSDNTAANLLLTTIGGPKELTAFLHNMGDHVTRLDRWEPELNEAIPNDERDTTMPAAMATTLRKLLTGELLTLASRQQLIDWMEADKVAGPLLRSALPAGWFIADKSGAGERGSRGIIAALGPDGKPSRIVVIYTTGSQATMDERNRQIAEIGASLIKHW
# Beta-lactamase [4] = target: T1, Beta-lactamase; assay: […] counterscreen for selective VIM-2 inhibitors: dose response biochemical high throughput screening assay to identify inhibitors of IMP-1 metallo-beta-lactamase.
# Beta Lactamase [5] = target: T2, Beta Lactamase; assay: VIM-2 inhibitor FRET-based artefact check, dose response, artefact control for selective VIM-2 inhibitor project, biochemical, FRET readout, CCF2 substrate (AID 1926)
# Large T antigen = Large T antigen (Simian virus 40, UniProt P03070); assay type: functional, Betapolyomavirus macacae;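 note: Confirmatory-stage PubChem screen for compounds that inhibit SV40 T antigen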
# Large T antigen, sequence (P03070 whole entry): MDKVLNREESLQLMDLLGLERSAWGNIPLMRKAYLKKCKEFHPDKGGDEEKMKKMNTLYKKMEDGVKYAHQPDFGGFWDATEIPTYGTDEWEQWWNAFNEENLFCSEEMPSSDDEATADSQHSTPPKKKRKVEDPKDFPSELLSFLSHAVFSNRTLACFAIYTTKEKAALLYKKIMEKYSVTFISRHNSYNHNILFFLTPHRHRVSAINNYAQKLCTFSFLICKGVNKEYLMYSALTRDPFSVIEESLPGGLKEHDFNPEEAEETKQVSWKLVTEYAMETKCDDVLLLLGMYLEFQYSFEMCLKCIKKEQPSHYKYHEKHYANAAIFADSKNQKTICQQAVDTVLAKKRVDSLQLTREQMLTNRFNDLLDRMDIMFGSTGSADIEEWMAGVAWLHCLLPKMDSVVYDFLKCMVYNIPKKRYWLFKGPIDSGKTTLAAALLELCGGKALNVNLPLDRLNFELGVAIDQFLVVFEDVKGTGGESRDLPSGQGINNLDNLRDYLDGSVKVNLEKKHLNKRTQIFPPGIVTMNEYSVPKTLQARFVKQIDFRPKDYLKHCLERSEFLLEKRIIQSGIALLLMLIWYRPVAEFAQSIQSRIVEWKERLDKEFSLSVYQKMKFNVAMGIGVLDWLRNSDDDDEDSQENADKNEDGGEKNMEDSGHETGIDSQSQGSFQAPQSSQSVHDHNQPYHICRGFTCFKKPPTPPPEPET
# [6] = target: Long-chain-fatty-acid--AMP ligase FadD28 (Mycobacterium tuberculosis, UniProt P9WQ59); assay: Fluorescence polarization aasay to screen for inhibitors that compete for the binding of FadD28 to a bisubstrate Measured in Biochemical System Using Plate Reader - 2147-01_Inhibitor_Dose_CherryPick_Activity.; assay type: functional, Mycobacterium tuberculosis H37Rv
# Long-chain-fatty-acid--AMP ligase FadD28, sequence (P9WQ59 whole entry): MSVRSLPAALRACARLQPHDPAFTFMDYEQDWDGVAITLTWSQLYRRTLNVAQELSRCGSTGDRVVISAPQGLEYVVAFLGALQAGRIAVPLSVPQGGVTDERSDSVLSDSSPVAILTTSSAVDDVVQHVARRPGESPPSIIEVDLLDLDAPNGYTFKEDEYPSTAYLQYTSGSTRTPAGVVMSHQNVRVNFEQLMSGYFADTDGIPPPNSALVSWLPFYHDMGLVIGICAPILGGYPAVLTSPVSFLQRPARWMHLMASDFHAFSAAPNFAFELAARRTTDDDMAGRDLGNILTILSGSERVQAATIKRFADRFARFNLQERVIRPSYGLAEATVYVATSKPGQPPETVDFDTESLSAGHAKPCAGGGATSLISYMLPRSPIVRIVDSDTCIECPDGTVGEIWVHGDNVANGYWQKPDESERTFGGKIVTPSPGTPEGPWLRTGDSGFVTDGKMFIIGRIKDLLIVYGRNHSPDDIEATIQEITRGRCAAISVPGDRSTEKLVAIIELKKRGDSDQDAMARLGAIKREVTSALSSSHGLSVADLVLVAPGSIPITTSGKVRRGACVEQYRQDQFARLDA
# [7] = MDA-MB-231 cell growth inhibition, dose response, cytotoxicity control for RAD54 inhibitor project, CellTiter-Glo luminescence, cherry-pick (AID 651692); assay type: functional, cell-based
# [8] = target: T3, DNA repair and recombination protein RAD54-like (Homo sapiens, UniProt Q92698); assay: inhibitors of human RAD54 branch migration, confirmation, biochemical, fluorescence, cherry-picked samples, dose series (AID 651657); assay type: functional
# T3 sequence (Q92698 whole entry): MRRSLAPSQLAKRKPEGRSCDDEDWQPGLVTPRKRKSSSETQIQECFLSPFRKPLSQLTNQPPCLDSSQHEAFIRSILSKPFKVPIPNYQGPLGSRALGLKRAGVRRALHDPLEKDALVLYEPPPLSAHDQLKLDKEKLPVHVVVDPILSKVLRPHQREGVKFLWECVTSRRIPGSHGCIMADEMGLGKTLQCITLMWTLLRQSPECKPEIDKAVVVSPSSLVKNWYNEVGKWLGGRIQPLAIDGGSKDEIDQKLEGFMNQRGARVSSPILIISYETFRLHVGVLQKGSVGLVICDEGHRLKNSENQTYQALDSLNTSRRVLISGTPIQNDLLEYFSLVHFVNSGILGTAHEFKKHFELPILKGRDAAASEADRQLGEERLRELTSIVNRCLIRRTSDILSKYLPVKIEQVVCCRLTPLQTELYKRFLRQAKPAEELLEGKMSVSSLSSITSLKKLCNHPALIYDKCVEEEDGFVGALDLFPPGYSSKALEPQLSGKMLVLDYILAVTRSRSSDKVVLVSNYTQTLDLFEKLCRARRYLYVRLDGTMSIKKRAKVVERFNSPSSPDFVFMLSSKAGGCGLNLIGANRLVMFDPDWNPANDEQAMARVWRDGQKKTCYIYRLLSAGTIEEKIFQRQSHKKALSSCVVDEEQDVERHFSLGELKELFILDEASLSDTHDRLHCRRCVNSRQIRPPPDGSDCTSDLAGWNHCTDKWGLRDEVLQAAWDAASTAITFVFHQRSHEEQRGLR
# [9] = target: T4, DNA repair protein RAD52 homolog (Homo sapiens, UniProt P43351); assay type: functional, biochemical
# T4 sequence (P43351 whole entry): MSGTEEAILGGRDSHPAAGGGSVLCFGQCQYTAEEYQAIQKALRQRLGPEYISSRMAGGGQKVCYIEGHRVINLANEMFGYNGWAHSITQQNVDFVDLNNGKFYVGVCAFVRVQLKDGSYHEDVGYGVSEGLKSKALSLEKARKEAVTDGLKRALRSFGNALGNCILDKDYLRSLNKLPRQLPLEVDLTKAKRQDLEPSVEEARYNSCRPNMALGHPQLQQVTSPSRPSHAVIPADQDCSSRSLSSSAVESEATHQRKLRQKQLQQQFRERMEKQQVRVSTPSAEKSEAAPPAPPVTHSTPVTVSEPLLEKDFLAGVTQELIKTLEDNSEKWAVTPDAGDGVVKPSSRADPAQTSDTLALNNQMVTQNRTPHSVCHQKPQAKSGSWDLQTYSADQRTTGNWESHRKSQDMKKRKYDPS
# Beta-lactamase (Salmonella choleraesuis (strain SC-B67), UniProt Q5J463), sequence (Q5J463 whole entry): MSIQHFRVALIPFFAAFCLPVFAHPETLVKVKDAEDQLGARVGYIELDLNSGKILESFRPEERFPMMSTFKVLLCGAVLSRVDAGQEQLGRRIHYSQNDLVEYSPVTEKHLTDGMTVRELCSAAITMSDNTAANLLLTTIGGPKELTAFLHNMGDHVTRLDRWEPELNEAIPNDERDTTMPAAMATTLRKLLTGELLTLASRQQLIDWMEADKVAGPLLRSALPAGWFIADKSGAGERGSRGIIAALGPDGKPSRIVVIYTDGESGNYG
compound,measurement,setting,value
CN(C)S(=O)(=O)c1cccc(NC(=S)N/N=C/C2CC=CCC2)c1 (stereo not given),IC50,Beta-lactamase [1],> 59.6 µM (inactive)
same,IC50,Beta-lactamase [2],> 59.6 µM (inactive)
same,IC50,Beta Lactamase [3],1 µM (active)
same,IC50,Beta-lactamase [4],> 59.6 µM (inactive)
same,IC50,Beta Lactamase [5],335 nM (active)
Cc1[nH]c2ccccc2c1-c1csc(NC(=O)CSCC(=O)O)n1,IC50,Large T antigen,26.2 µM (active)
same,AC50,[6],> 100 µM (inactive)
Cc1cc2oc3ccc(NCCC4CCCN4C)cc3c(=O)c2cc1C (stereo not given),AC50,[7],23.6 µM (active)
same,AC50,[8],14.7 µM (active)
same,AC50,[9],8.31 µM (active)
